# Results as given in ChEMBL document CHEMBL1201862, “PubChem BioAssay data set” (2004).
#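 Interpolation was linear, between the two tested concentrations surrounding the appropriate level; five concentrations were tested over 48 hours in 96-well plates. Here, GI50 denotes the concentration required for 50% inhibition of growth.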 Activity calls are given as the source filed them. Rule as the data show it: active = GI50 up to about 1.1 µM and inactive = higher.
# Key:
# Experiment in all cases: NCI-60 cell line screen, 48 h
# HOP-62 = system: HOP-62
# TK-10 = system: TK-10
# KM12 = system: KM12
# NCI-H23 = system: NCI-H23
# M14 = system: M14
# OVCAR-8 = system: OVCAR-8
# DMS-114 = system: DMS-114
# RPMI-8226 = system: RPMI-8226
# IGROV-1 = system: IGROV-1
# HL-60 = system: HL-60
# UACC-257 = system: UACC-257
# SNB-75 = system: SNB-75
# HOP-92 = system: HOP-92
# SK-OV-3 = system: SK-OV-3
# UO-31 = system: UO-31
# SK-MEL-2 = system: SK-MEL-2
# COLO 205 = system: COLO 205
# SK-MEL-5 = system: SK-MEL-5
# SF-268 = system: SF-268
# K562 = system: K562
Structure (SMILES),GI50 (HOP-62),GI50 (TK-10),GI50 (KM12),GI50 (NCI-H23),GI50 (M14),GI50 (OVCAR-8),GI50 (DMS-114),GI50 (RPMI-8226),GI50 (IGROV-1),GI50 (HL-60),GI50 (UACC-257),GI50 (SNB-75),GI50 (HOP-92),GI50 (SK-OV-3),GI50 (UO-31),GI50 (SK-MEL-2),GI50 (COLO 205),GI50 (SK-MEL-5),GI50 (SF-268),GI50 (K562)
Cc1ccc(NP(=O)(Oc2ccccc2)N(CCCl)CCCl)cc1 (configuration not stated),> 100 µM (inactive),> 100 µM (inactive),91 µM (inactive),61.5 µM (inactive),> 100 µM (inactive),99.1 µM (inactive),34.4 µM (inactive),5.5 µM (inactive),90.8 µM (inactive),44 µM (inactive),28.6 µM (inactive),> 100 µM (inactive),96.4 µM (inactive),> 100 µM (inactive),76.4 µM (inactive),41.6 µM (inactive),31.6 µM (inactive),74.5 µM (inactive),80.5 µM (inactive),> 100 µM (inactive)
CSc1nc2c(ncn2C2OCC(O)C(O)C2O)c(=O)[nH]1 (configuration not stated),> 100 µM (inactive),,> 100 µM (inactive),> 100 µM (inactive),,> 100 µM (inactive),> 100 µM (inactive),> 100 µM (inactive),> 100 µM (inactive),> 100 µM (inactive),> 100 µM (inactive),> 100 µM (inactive),> 100 µM (inactive),> 100 µM (inactive),> 100 µM (inactive),> 100 µM (inactive),> 100 µM (inactive),> 100 µM (inactive),> 100 µM (inactive),> 100 µM (inactive)
CC(=O)c1c(-c2ccco2)c(C#N)c(=S)n(C2OC(CO)C(O)C(O)C2O)c1C (configuration not stated),> 100 µM (inactive),> 100 µM (inactive),> 100 µM (inactive),> 100 µM (inactive),72.9 µM (inactive),> 100 µM (inactive),,> 100 µM (inactive),> 100 µM (inactive),50.9 µM (inactive),> 100 µM (inactive),47.5 µM (inactive),,> 100 µM (inactive),56.6 µM (inactive),,> 100 µM (inactive),60.3 µM (inactive),> 100 µM (inactive),95.5 µM (inactive)
O=c1c2c(nc3[nH]ccn13)CCCC2,> 10 µM (inactive),> 10 µM (inactive),> 10 µM (inactive),> 10 µM (inactive),> 10 µM (inactive),> 10 µM (inactive),,> 10 µM (inactive),> 10 µM (inactive),> 10 µM (inactive),,> 10 µM (inactive),,> 10 µM (inactive),> 10 µM (inactive),> 10 µM (inactive),> 10 µM (inactive),> 10 µM (inactive),> 10 µM (inactive),
O=C(O)/C=C/c1nc2ccccc2c(=O)o1,,> 100 µM (inactive),> 100 µM (inactive),> 100 µM (inactive),> 100 µM (inactive),> 100 µM (inactive),> 100 µM (inactive),> 100 µM (inactive),> 100 µM (inactive),> 100 µM (inactive),,> 100 µM (inactive),> 100 µM (inactive),> 100 µM (inactive),> 100 µM (inactive),> 100 µM (inactive),> 100 µM (inactive),> 100 µM (inactive),,> 100 µM (inactive)
Cc1ccc([N+](=O)[O-])cc1S(=O)(=O)Nc1ccc(C2=NNC(c3ccccc3O)C2)cc1 (configuration not stated),21.1 µM (inactive),0.416 µM (active),21.6 µM (inactive),20.6 µM (inactive),20.7 µM (inactive),56 µM (inactive),,26.2 µM (inactive),40.7 µM (inactive),12.1 µM (inactive),25.9 µM (inactive),33.2 µM (inactive),79.3 µM (inactive),25.1 µM (inactive),17.9 µM (inactive),25.2 µM (inactive),24.7 µM (inactive),19.2 µM (inactive),32.1 µM (inactive),24.5 µM (inactive)
O=C(CCl)NNC1=Nc2ccc(Cl)cc2SC1,17.7 µM (inactive),,5.02 µM (inactive),2.47 µM (inactive),,1.4 µM (inactive),1.98 µM (inactive),1.86 µM (inactive),1.95 µM (inactive),1.55 µM (inactive),3.23 µM (inactive),2.16 µM (inactive),1.63 µM (inactive),6.61 µM (inactive),1.86 µM (inactive),3.66 µM (inactive),1.94 µM (inactive),2.36 µM (inactive),1.69 µM (inactive),1.87 µM (inactive)
CN(C(=O)c1ccccc1)c1ccc2c(c1)C(=O)c1ccccc1C2=O,> 100 µM (inactive),> 100 µM (inactive),> 100 µM (inactive),> 100 µM (inactive),> 100 µM (inactive),> 100 µM (inactive),> 100 µM (inactive),> 100 µM (inactive),> 100 µM (inactive),,> 100 µM (inactive),,> 100 µM (inactive),> 100 µM (inactive),> 100 µM (inactive),> 100 µM (inactive),> 100 µM (inactive),,> 100 µM (inactive),> 100 µM (inactive)
CCCCCn1cc2c3c(cccc31)C1C=C(C)CN(C)[C@@H]1C2.Cc1ccc(C(=O)OC(C(=O)O)C(OC(=O)c2ccc(C)cc2)C(=O)O)cc1 (configuration not stated),12.7 µM (inactive),,5.92 µM (inactive),3.37 µM (inactive),,12.3 µM (inactive),3.47 µM (inactive),2.64 µM (inactive),8.22 µM (inactive),1.35 µM (inactive),4.21 µM (inactive),5.42 µM (inactive),1.6 µM (inactive),9.93 µM (inactive),3.86 µM (inactive),9.18 µM (inactive),3.38 µM (inactive),3.06 µM (inactive),11 µM (inactive),2.51 µM (inactive)
COC1=C2CC(C)CC(OC)C(OC(=O)CN)[C@H](C)/C=C(\C)C(OC(N)=O)C(OC)/C=C\C=C(/C)C(=O)NC(=CC1=O)C2=O (some centres not stated),0.942 µM (active),0.519 µM (active),1.24 µM (inactive),0.369 µM (active),0.451 µM (active),0.94 µM (active),,0.902 µM (active),0.453 µM (active),0.123 µM (active),0.359 µM (active),,0.163 µM (active),3.32 µM (inactive),0.716 µM (active),3.84 µM (inactive),0.0562 µM (active),0.855 µM (active),3.44 µM (inactive),
C/C=C1/C(=O)O[C@]23C=C[C@@H]4C(C(=O)OC)=CO[C@H](O[C@@H]12)[C@@H]43 [PLUMERICIN],6.38 µM (inactive),,2.28 µM (inactive),0.916 µM (active),,0.594 µM (active),1.12 µM (inactive),0.423 µM (active),1.19 µM (inactive),0.24 µM (active),0.592 µM (active),3.34 µM (inactive),1.61 µM (inactive),3.93 µM (inactive),3.12 µM (inactive),1.44 µM (inactive),1 µM (active),2.12 µM (inactive),1.28 µM (inactive),0.652 µM (active)
O=C1OC2(CC1C1(O)C3CC4CC(C3)CC1C4)C1CC3CC(C1)CC2C3 (configuration not stated),,> 100 µM (inactive),> 100 µM (inactive),> 100 µM (inactive),> 100 µM (inactive),35.1 µM (inactive),82 µM (inactive),,77.6 µM (inactive),> 100 µM (inactive),> 100 µM (inactive),40.8 µM (inactive),,,> 100 µM (inactive),> 100 µM (inactive),,38.3 µM (inactive),> 100 µM (inactive),> 100 µM (inactive)
CC1(C(=O)O)CCC(C(=O)O)C(C)(C)O1 (configuration not stated),4.9 µM (inactive),> 100 µM (inactive),> 100 µM (inactive),> 100 µM (inactive),> 100 µM (inactive),> 100 µM (inactive),,> 100 µM (inactive),> 100 µM (inactive),,> 100 µM (inactive),> 100 µM (inactive),> 100 µM (inactive),> 100 µM (inactive),> 100 µM (inactive),> 100 µM (inactive),> 100 µM (inactive),> 100 µM (inactive),> 100 µM (inactive),> 100 µM (inactive)
N#C/C(=C\c1ccncc1)c1csc2ccccc12,24.8 µM (inactive),,18.5 µM (inactive),25.2 µM (inactive),,28.5 µM (inactive),,18.6 µM (inactive),28 µM (inactive),15.1 µM (inactive),23.7 µM (inactive),24.4 µM (inactive),20.9 µM (inactive),34.8 µM (inactive),24.9 µM (inactive),17.2 µM (inactive),18.9 µM (inactive),16.8 µM (inactive),22.9 µM (inactive),20.2 µM (inactive)
COC(Cc1cc(C(O)(c2ccc(C(C)(C)C)cc2)c2cc(CC(OC)(c3cc(C(OC)(c4ccc(C(C)(C)C)cc4)c4ccc(C(C)(C)C)cc4)c(C)cc3C)c3cc(C(OC)(c4ccc(C(C)(C)C)cc4)c4ccc(C(C)(C)C)cc4)c(C)cc3C)c(C)cc2C)c(C)cc1C)(c1cc(C(OC)(c2ccc(C(C)(C)C)cc2)c2ccc(C(C)(C)C)cc2)c(C)cc1C)c1cc(C(OC)(c2ccc(C(C)(C)C)cc2)c2ccc(C(C)(C)C)cc2)c(C)cc1C,> 75 µM (inactive),> 75 µM (inactive),,> 75 µM (inactive),> 75 µM (inactive),> 75 µM (inactive),,,> 75 µM (inactive),> 75 µM (inactive),> 75 µM (inactive),> 75 µM (inactive),> 75 µM (inactive),> 75 µM (inactive),> 75 µM (inactive),> 75 µM (inactive),> 75 µM (inactive),> 75 µM (inactive),> 75 µM (inactive),> 75 µM (inactive)
